Experiments:
[1] = system: panel of cancer cell lines; test: formation rate of Cpd.11c and Cpd.11d metabolites in cancer cell lines; format: in vitro ADME, human
Text: FIG. 3: cytotoxicity of Cpd.11 Ms and metabolites in normoxic and anoxic conditions in a panel of human cancer cell lines. […] The same panel of cell lines has been used to calculate the formation rate of Cpd.11c and Cpd.11d metabolites (B). A panel of human cell lines isolated from lung cancer (A-427, […], NCI-460, NCI-H1975), pancreatic cancer (Hs 766T, BxPC-3, Capan-1), and breast cancer (MDA-MB-453, SK-BR-3, EFM-19, Hs578t) has been exposed to synthetic version of Cpd.11c and Cpd.11d metabolites, that present cytotoxic properties also in normoxic conditions (C). The average plating efficiency in the drug-free control wells was 43% under normoxic and 30% under anoxic conditions.

[2] = system: MDA-MB-436 tumor xenograft; test: triple negative breast cancer xenograft model; format: in vivo, BALB/c Nude Mice; details: MDA-MB-436 xenograft, single treatment cycle; for Anti-tumor effect: 600 mg/kg IP, hypoxic status confirmed, methanesulfonate, 600 mg/kg
Protocol: (§1) All animal models were established as xenograft model in BALB/c Nude Mice (6-8 weeks old, 17-23 grams, maintained in standard conditions and diet), following approved IACUC (Institutional Animal Care and Use Committees) protocols. Cpd.11 Ms was formulated using 2% dimethyl sulfoxide (DMSO in water for injection, starting from a Cpd.11 Ms main preparation (100-60 mg/ml in 2% DMSO in water for injection).
(§2) After tumor cell inoculation, the animals were checked daily for morbidity and mortality. Before commencement of treatment all animals were weighed and the tumor volumes were measured using a caliper. The treatments were started when the mean tumor size reached approx. 250 mm^3. Each treated/control group contained 10 mice that were randomly assigned and injected daily for 5 days. The date of tumor cell inoculation was denoted as day 0 (thus injections were performed at day 1, 2, 3, 4, and 5). At the time of routine monitoring, the animals were checked for any effects of tumor growth and treatments on normal behavior such as mobility, visual estimation of food and water consumption, body weight gain/loss (body weights were measured daily during the 5-day treatment and thrice weekly after treatment), eye/hair matting and any other abnormal effect. Death and observed clinical signs were recorded on the basis of the numbers of animals within each subset. Tumor volumes were measured daily during the 5-day treatment and thrice weekly after treatment in two dimensions using a caliper, and the volume was expressed in mm3 using the formula: V=0.5 a×b2 where a and b are the long and short diameters of the tumor, respectively. The entire procedures of dosing as well as tumor and body weight measurement were conducted in a Laminar Flow Cabinet. Individual mice were euthanized by cervical dislocation when the tumor size reached 1400-1600 mm3. The surrogate endpoint for survival was calculated and indicated as TVx4 (initial tumor volume times 4). Statistical analysis of difference in tumor volume among the groups was conducted at the end of experiment using Independent-Samples T Test. All data were analyzed in SPSS (Statistical Product and Service Solutions) version 18.0 (IBM, Armonk, NY, U.S.). P-values were rounded to three decimal places, with the exception that raw P-values less than 0.001 were stated as P<0.001. All tests were two-sided. P<0.05 was considered to be statistically significant.
For the MDA-MB-436 tumor (ATCC: HTB-130; Passage: P4) cells were maintained in vitro as a monolayer culture in L-15 medium supplemented with 10% heat inactivated fetal bovine serum at 37° C. in an atmosphere of 100% air. […] The cells growing in an exponential growth phase were harvested and counted for tumor inoculation. […]

NCI-H69 tumor xenograft = test: lung cancer (SCLC) xenograft model; format: in vivo, BALB/c Nude Mice; details: for Anti-tumor effect: 600 mg/kg IP, hypoxic status confirmed, methanesulfonate, 600 mg/kg
Protocol: as §1
as §2, with “Each treated/control group contained 10 mice that were randomly assigned and injected daily for 5 days.” left out
For the MDA-MB-436 tumor (ATCC: HTB-130; Passage: P4) cells were maintained in vitro as a monolayer culture in L-15 medium supplemented with 10% heat inactivated fetal bovine serum at 37° C. in an atmosphere of 100% air. For NCI-H69 (ATCC: HTB-119; Passage: P3), tumor cells were maintained in vitro in RPMI1640 medium supplemented with 10% fetal bovine serum at 370C in an atmosphere of 5% CO2 in air. For PANC-1 (ATCC: CRL-1469; Passage: P2) tumor cells were maintained in vitro as a monolayer culture in DMEM medium supplemented with 10% heat inactivated fetal bovine serum at 37 °C in an atmosphere of 5% CO2 in air. The tumor cells were routinely sub-cultured twice weekly by trypsin-EDTA treatment. The cells growing in an exponential growth phase were harvested and counted for tumor inoculation. Each mouse was inoculated with 1×10^7 tumor cells (orthotopically at the right mammary fat pad for MDA-MB-436 model, or subcutaneously at the right flank region for both NCI-H69 model and PANC-1 model) in 0.1 ml of PBS mixed with Matrigel (1:1, Corning, #354234) for tumor development. […]

[3] = system: NCI-H1650 tumor xenograft; test: lung cancer (NSCLC) xenograft model; format: in vivo, BALB/c Nude Mice
Protocol: as §1
(§3) After tumor cell inoculation, the animals were checked daily for morbidity and mortality. Before commencement of treatment all animals were weighed and the tumor volumes were measured using a caliper. The treatments were started when the mean tumor size reached approx. 250 mm^3. […] At the time of routine monitoring, the animals were checked for any effects of tumor growth and treatments on normal behavior such as mobility, visual estimation of food and water consumption, body weight gain/loss (body weights were measured daily during the 5-day treatment and thrice weekly after treatment), eye/hair matting and any other abnormal effect. Death and observed clinical signs were recorded on the basis of the numbers of animals within each subset. […] The surrogate endpoint for survival was calculated and indicated as TVx4 (initial tumor volume times 4). […] All data were analyzed in SPSS (Statistical Product and Service Solutions) version 18.0 (IBM, Armonk, NY, U.S.). […]

[4] = system: MiaPaCa-2 tumor xenograft; test: pancreatic cancer xenograft model; format: in vivo, BALB/c Nude Mice; details: MiaPaCa-2 xenograft, 600 mg/kg IP, hypoxic status absent, methanesulfonate
Protocol: as §1, §3

SMILES: CCN1CCN(C(=O)c2cc(N(CCBr)CCOS(C)(=O)=O)c(S(C)(=O)=O)cc2[N+](=O)[O-])CC1.CS(=O)(=O)O [Cpd.11 Ms, 4-(5-((2-bromoethyl) (2-((methylsulfonyl)oxy)ethyl)amino)-4-(methylsulfonyl)-2-nitrobenzoyl)-1-ethylpiperazin-1-ium methanesulfonate]
- conversion of Cpd.11 Ms into Cpd.11c and Cpd.11d (FIG. 3B) [1]: strong and rapid ratio of conversion
- Anti-tumor effect ([2]; listed as Cpd.11Ms): Strong impact,
- Anti-tumor effect [2]: significant regression of the tumour
- effects on body weight ([2]; IP): absence of effects on body weight
- median surrogate survival index (TVx4) compared to vehicle treated animals ([2]; IP): more than double
- Anti-tumor effect (NCI-H69 tumor xenograft; single treatment cycle, listed as Cpd.11Ms): Strong impact,
- Anti-tumor effect (NCI-H69 tumor xenograft; single treatment cycle): significant regression of the tumours
- therapeutic response with alternative regimens (NCI-H69 tumor xenograft; repeated administration over 3 weeks): longer term tumor control
- effects on body weight (NCI-H69 tumor xenograft; single treatment cycle, IP): absence of effects on body weight
- median surrogate survival index (TVx4) in comparison to vehicle treated animals (NCI-H69 tumor xenograft; single treatment cycle, IP): doubled
- Anti-tumor effect ([3]; 600 mg/kg IP, hypoxic status confirmed): Clear impact,
- median surrogate survival index ([3]; single treatment cycle): significant effect
- Anti-tumor effect ([4]; listed as Cpd.11Ms): No impact
- Anti-tumor effect [4]: not observed
